From patent publication US12435080B2, “sGC stimulators” (Tisento Therapeutics Inc., priority 2016, dated 2025)
Where a chain is given by its changes, count along the chain named. Read-outs that look alike come from different tables or passages of the source.

Columns and labels:
[1] = Rat cerebrospinal fluid (CSF) pharmacokinetic properties; format: in vivo; settings: for concentration at 1 h: CSF, male Sprague-Dawley rats, PO 10 mg/kg in PEG400, 1 h post-dosing, read-out: CSF Conc. (nM @ 1 h); for Kp uu at 1 h: male, Sprague-Dawley, CSF and plasma (unbound), unbound CSF/unbound plasma ratio, rats, PO 10 mg/kg
Protocol: PK in rats was determined following oral dosing. For the oral (PO) experiments, a group of 6 male Sprague-Dawley rats with an indwelling catheter placed in the cisterna magna were used. The PO group was dosed with 3 or 10 mg/kg of a compound formulated as a solution in PEG400. PO doses were administered by oral gavage and delivered to the stomach using a syringe and gavage tube. Following oral dosage administration, the gavage tube was flushed with approximately 0.5 mL of water to ensure complete delivery of the full dose.
Plasma and CSF samples were collected as follows: samples of CSF and blood were collected at 1 hour and 2 hours post-dosing. CSF samples (0.05 mL) were collected through the intracisternal catheter. Blood samples (0.25 mL) were collected through retro-orbital sampling. These samples were kept on ice until processed for plasma. Blood samples were centrifuged at 3200 rpm for 5 minutes at approximately 5° C. within 1 hour of collection. Plasma was directly transferred to a 96-well plate tube (0.125 mL). Plug caps were placed on the tubes and the tubes frozen at approximately −70° C. and stored until analysis.
Plasma was collected and analyzed for the presence of compound.
The compound in question and the internal standard were extracted from plasma and CSF by precipitation. Samples were analyzed using liquid chromatography (LC) with tandem mass spectrometric detection (MS/MS) using electrospray ionization. The standard curve range was from 1 to 1000 ng/mL. Results of the compounds described herein in this assay are illustrated in Tables 4A (for compounds in Table IA) and 4B (for compounds in Table IB) below.
Kp,uu is defined as the concentration ratio of unbound drug in CSF to unbound drug in plasma. Unbound drug in plasma (or free plasma concentration) is calculated by multiplying the total plasma concentration by the unbound fraction as determined by plasma protein binding. The CSF concentration is then divided by the free plasma concentration to determine the Kp,uu. (See e.g., Di et al., J. Med. Chem., 56, 2-12 (2013))

sGC enzyme = target: T1, sGC enzyme (Homo sapiens, UniProt Q02108+Q02153); test: cGMP GloSensor cell-based assay, 384-well format; settings: HEK293 cells expressing GloSensor 40F cGMP, 10 μM DETA-NONOate, normalized to 30 μM Compound Y
T1 construct: incorporated into these cells detect cGMP formed by the compounds stimulating the sGC enzyme; host or cells: HEK293 cells stably expressing GloSensor 40F cGMP biosensor
T1 sequence (Q02153 1-619): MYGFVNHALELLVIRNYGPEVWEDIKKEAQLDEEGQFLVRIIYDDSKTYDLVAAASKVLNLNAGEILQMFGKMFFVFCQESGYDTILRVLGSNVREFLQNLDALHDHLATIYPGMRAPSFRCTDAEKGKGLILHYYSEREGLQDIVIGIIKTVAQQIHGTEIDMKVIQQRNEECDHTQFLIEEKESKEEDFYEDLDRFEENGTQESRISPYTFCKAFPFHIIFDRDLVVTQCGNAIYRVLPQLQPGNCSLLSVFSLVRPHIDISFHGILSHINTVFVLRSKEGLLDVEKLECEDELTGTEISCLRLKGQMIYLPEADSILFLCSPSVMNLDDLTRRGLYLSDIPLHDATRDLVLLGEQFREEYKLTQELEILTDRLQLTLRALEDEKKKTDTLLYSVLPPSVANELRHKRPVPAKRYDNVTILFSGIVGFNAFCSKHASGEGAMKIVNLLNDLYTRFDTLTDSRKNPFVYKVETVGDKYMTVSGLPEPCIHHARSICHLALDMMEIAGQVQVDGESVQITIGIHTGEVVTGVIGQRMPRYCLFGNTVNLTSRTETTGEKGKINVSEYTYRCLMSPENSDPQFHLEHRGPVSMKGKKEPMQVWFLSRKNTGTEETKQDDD
T1 sequence (Q02108 1-690): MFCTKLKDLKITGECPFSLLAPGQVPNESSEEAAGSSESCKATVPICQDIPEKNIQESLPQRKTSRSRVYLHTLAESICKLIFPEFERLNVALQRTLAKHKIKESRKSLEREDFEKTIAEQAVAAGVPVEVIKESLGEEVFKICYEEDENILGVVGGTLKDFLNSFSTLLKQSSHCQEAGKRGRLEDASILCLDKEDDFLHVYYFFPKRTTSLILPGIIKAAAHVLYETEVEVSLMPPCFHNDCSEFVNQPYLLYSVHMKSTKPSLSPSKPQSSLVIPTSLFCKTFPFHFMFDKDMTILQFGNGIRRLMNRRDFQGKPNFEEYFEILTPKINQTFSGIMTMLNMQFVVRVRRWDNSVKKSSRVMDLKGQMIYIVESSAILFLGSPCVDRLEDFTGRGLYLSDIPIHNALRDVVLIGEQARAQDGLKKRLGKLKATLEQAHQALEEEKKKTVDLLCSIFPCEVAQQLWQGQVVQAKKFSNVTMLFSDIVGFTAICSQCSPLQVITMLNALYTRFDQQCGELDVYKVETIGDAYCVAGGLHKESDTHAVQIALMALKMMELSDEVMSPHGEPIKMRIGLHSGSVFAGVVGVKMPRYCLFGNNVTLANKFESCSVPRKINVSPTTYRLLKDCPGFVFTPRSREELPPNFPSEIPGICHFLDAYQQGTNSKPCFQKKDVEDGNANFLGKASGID
Procedure, shortened: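 HEK293 cells expressing GloSensor 40F cGMP luciferase biosensor, preloaded with 2 mM GloSensor substrate for 90 min at 25 °C. Endpoint luminescence read after 55 min compound incubation at room temperature.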

sGC = target: T2, sGC (Rattus norvegicus, UniProt P20595); test: cGMP neuronal cell-based assay; settings: rat primary hippocampal neurons, 30 μM DETA-NO, cGMP by LC-MS/MS, normalized to 10 μM Compound Y
T2 construct: Rat primary neurons were isolated from fetuses of 18-day pregnant Sprague-Dawley females; endogenous in cells; host or cells: Primary rat hippocampal neurons (E18 Sprague-Dawley fetuses)
T2 sequence (P20595 1-619): T1 sequence (Q02153 1-619) with N171S, E205D, N247K, T299A, K615N, D618E, D619N
Protocol: Rat primary neurons were isolated from fetuses of 18-day pregnant Sprague-Dawley females. The fetuses were collected in Hanks' balanced salt solution (HBSS) and brains were rapidly removed. The cerebral hippocampi were isolated and mechanically fragmented. Further tissue digestion was performed with 0.25% (wt/vol) trypsin solution in HBSS without Ca2+ and Mg2+ for 15 min at 37° C. After trypsination, cells were washed and resuspended in neurobasal medium supplemented with 0.5 mM L-glutamine, 12.5 uM glutamic acid, 2% B-27 and 100U/mL penicillin, and 100 μg/mL streptomycin. Cells were plated at a density of 4×10^4 cells/well in a poly-D-lysine coated 384-well flat clear-bottom plate (Corning Cat No 354662). Cells were incubated 6-7 days at 37° C. in a humidified chamber with 5% CO2. Media was removed and cells were washed 1× with HBSS containing Ca2+ and Mg2+, and replaced with 40 uL HBSS containing 0.5 mM IBMX, and incubated for 15 minutes at 37° C. 10 uL of a 5× stock of test compounds with diethylenetriamine NONOate (DETA-NO) was added. Final concentration of DETA-NO was 30 μM. Cells were incubated for 20 min at 37° C. Medium was removed, 50 uL of ice-cold 10% acetic acid was added, and incubated for 60 minutes at 4° C. Following centrifugation at 4° C. for 5 minutes at 1000×g to pellet cell debris, the supernatant was aspirated to a clean plate and the samples were analyzed for cGMP content. cGMP concentrations were determined from each sample using LC-MS/MS.
Data were normalized to a high control using the following equation: 100*(Sample−Low Control)/(High Control−Low Control), where the low control is the average of 15 samples treated with 1% DMSO, and the high control is the average of 15 samples treated with 10 μM of the known sGC stimulator Compound Y (depicted in Example 2). Data were fit using a 4-parameter fit (log(agonist) vs. response—variable slope) using GraphPad Prism Software v.5. n=2 for all compounds. The Absolute EC50 was interpolated from the curve fit and is defined as the concentration at which a given compound elicits 50% of the high control response after data normalization. Compounds failing to elicit a minimum response of 50% are reported as >30 μM. For compounds run in duplicate or n higher than 2, the result herein given is the geometric mean of the several results obtained.

[2] = compounds in Table IA, read-out: Glo-sensor AbsEC50
[3] = compounds in Table IA, read-out: sGC-neuron Abs EC50
[4] = compounds in Table IB, read-out: Glo-sensor Abs EC50

| concentration at 1 h ([1]; compounds in Table IA) | Kp uu at 1 h ([1]; compounds in Table IA) | EC50 (sGC enzyme; [2]) | EC50 (sGC enzyme; [4]) | also measured | SMILES |
| --- | --- | --- | --- | --- | --- |
| 207 nM | 3.37 | < 100 nM | – | – | Fc1ccccc1Cn1nc(-c2nc(C(F)F)n[nH]2)c2cccnc21 [Compound I-20, 3-(3-(Difluoromethyl)-1H-1,2,4-triazol-5-yl)-1-(2-fluorobenzyl)-1H-pyrazolo[3,4-b]pyridine] |
| – | – | < 100 nM | – | EC50 (sGC; [3]): ≤ 100 nM | Fc1cnc2c(c1)c(-c1nc(C(F)(F)F)n[nH]1)nn2Cc1ccccc1F [Compound I-8, 5-Fluoro-1-(2-fluorobenzyl)-3-(3-(trifluoromethyl)-1H-1,2,4-triazol-5-yl)-1H-pyrazolo[3,4-b]pyridine] |
| – | – | < 100 nM | – | EC50 (sGC; [3]): ≤ 100 nM | Fc1ccc(F)c(Cc2nn(-c3nc(C(F)F)n[nH]3)c3cccnc23)c1 [Compound I-131, 3-(2,5-Difluorobenzyl)-1-(3-(difluoromethyl)-1H-1,2,4-triazol-5-yl)-1H-pyrazolo[4,3-b]pyridine] |
| – | – | – | < 100 nM | EC50 (sGC; compounds in Table IB, read-out: sGC-Neuron Abs EC50): ≤ 100 nM | FC(F)(F)c1n[nH]c(-c2nc(Cc3cncnc3)c3cc(Cl)ccn23)n1 [Compound I-6, 7-Chloro-1-(pyrimidin-5-ylmethyl)-3-(3-(trifluoromethyl)-1H-1,2,4-triazol-5-yl)imidazo[1,5-a]pyridine] |
| 10.8 nM | 0.52 | < 100 nM | – | – | N#Cc1n[nH]c(-c2nn(Cc3cccc(F)c3F)c3ncccc23)n1 [Compound I-92, 5-(1-(2,3-Difluorobenzyl)-1H-pyrazolo[3,4-b]pyridin-3-yl)-1H-1,2,4-triazole-3-carbonitrile] |
| – | – | – | < 100 nM | concentration at 1 h ([1]; compounds in Table IB): 45 nM; Kp uu at 1 h ([1]; compounds in Table IB): 0.16 | Fc1ccc2c(Cc3cncnc3)nc(-c3nc(C(F)(F)F)n[nH]3)n2c1 [Compound I-12, 6-fluoro-1-(pyrimidin-5-ylmethyl)-3-(3-(trifluoromethyl)-1H-1,2,4-triazol-5-yl)imidazo[1,5-a]pyridine] |
| – | – | – | 100 to 1000 nM | concentration at 1 h ([1]; compounds in Table IB): 30.4 nM; Kp uu at 1 h ([1]; compounds in Table IB): 1.08 | Cc1n[nH]c(-c2nc(Cc3cncnc3)c3ccccn23)n1 [Compound I-5, 3-(3-methyl-1H-1,2,4-triazol-5-yl)-1-(pyrimidin-5-ylmethyl)imidazo[1,5-a]pyridine] |
| 164 nM | 0.24 | < 100 nM | – | – | Fc1cncc(Cn2nc(-c3nc(C(F)(F)F)n[nH]3)c3cccnc32)c1 [Compound I-1, 1-((5-fluoropyridin-3-yl)methyl)-3-(3-(trifluoromethyl)-1H-1,2,4-triazol-5-yl)-1H-pyrazolo[3,4-b]pyridine] |
| – | – | 100 to 1000 nM | – | – | FC(F)(F)c1n[nH]c(-n2nc(Cc3ccccc3)c3ncccc32)n1 [Compound I-128, 3-Benzyl-1-(3-(trifluoromethyl)-1H-1,2,4-triazol-5-yl)-1H-pyrazolo[4,3-b]pyridine] |
| – | – | > 1000 nM | – | – | Fc1ccccc1Cn1nc(-c2nc(C(F)(F)F)n[nH]2)c2cnccc21 [Compound I-43, 1-(2-Fluorobenzyl)-3-(3-(trifluoromethyl)-1H-1,2,4-triazol-5-yl)-1H-pyrazolo[4,3-c]pyridine] |
